Reference: patent US11186577B2, “Vasopressin receptor antagonists and products and methods related thereto” (BlackThorn Therapeutics, Inc., priority 2017, dated 2021)

Columns and labels:
Format in all cases: in vitro ADME
[1] = tested on: wild-type (WT) MDCK cells; assay: MDR1-MDCK effective efflux assay (Transwell, 10 μM, 1 hour), wild-type MDCK cells; conditions: for Papp AB WT: wild-type MDCK cells, apical to basolateral (A>B), 10 μM, 1 hour; for WT ER: MDCK
Procedure, shortened: (§1)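 Wild-type and MDR1-MDCK monolayers cultured 3 days were dosed with compound at 10 μM (0.1% DMSO) in HBSS/25 mM HEPES pH 7.4, in both A>B and B>A directions, for 1 h at 37 °C. Samples were quantified by LC-MS/MS to give Papp and efflux ratio. Effective efflux ratio = ER(MDR1-MDCK)/ER(wild-type); Lucifer Yellow checked monolayer integrity.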

[2] = tested on: MDR1-MDCK cells; assay: MDR1-MDCK effective efflux assay (Transwell, 10 μM, 1 hour), MDR1-MDCK cells; conditions: for Papp AB MDR1: MDR1-MDCK cells, apical to basolateral (A>B), 10 μM, 1 hour; for MDR1 EER / MDR1 ER: MDCK-MDR1
Procedure, shortened: as §1

[3] = MDR1-MDCK effective efflux assay (Transwell, 10 μM, 1 hour), wild-type MDCK cells; conditions: dog, MDCK, pH 7.4, Papp AB WT
Procedure, shortened: as §1

[4] = tested on: MDR1 (P-glycoprotein); assay: MDR1-MDCK effective efflux assay (Transwell, 10 μM, 1 hour), MDR1-MDCK cells; conditions: dog, MDCK-MDR1, pH 7.4, Papp AB MDR1
Procedure, shortened: as §1

Row | SMILES | Papp AB WT [1] | Papp AB MDR1 [2] | WT ER [1] | Papp A→B at 1 h, 10 μM [3] | MDR1 EER [2] | MDR1 ER [2] | Papp A→B at 1 h, 10 μM [4]
1 | COC(=O)N1Cc2cc(Cl)ccc2-n2c(C3CC4(C3)CN(c3cnccn3)C4)nnc2C1C (single isomer, unassigned) [Cpd 165A] | ++++ ((++++) denotes >20 (10^-6 cm/sec)) | + ((+) denotes an apparent permeability <7 (10^-6 cm/sec)) |  |  |  |  | 
2 | CC(C)OC(=O)N1Cc2cc(Cl)ccc2-n2c(C3CC4(C3)CN(c3ncccn3)C4)nnc2C1C (single isomer, unassigned) [Cpd 167A] | ++++ ((++++) denotes >20 (10^-6 cm/sec)) | ++++ ((++++) denotes >20 (10^-6 cm/sec)) |  |  |  |  | 
3 | CCOC(=O)N1Cc2cc(Cl)ccc2-n2c(C3CC4(C3)CN(c3ncccn3)C4)nnc2C1C (single isomer, unassigned) [Cpd 168A] | ++++ ((++++) denotes >20 (10^-6 cm/sec)) | ++++ ((++++) denotes >20 (10^-6 cm/sec)) |  |  |  |  | 
4 | CCOC(=O)N1Cc2cc(Cl)ccc2-n2c(C3CC4(C3)CN(c3ccc(F)cn3)C4)nnc2C1C (single isomer, unassigned) [Cpd 169A] | ++++ ((++++) denotes >20 (10^-6 cm/sec)) | ++++ ((++++) denotes >20 (10^-6 cm/sec)) |  |  |  |  | 
5 | CC1c2nnc(C3CC4(C3)CN(c3ncccn3)C4)n2-c2ccc(Cl)cc2CN1C(=O)OC1CC1 (single isomer, unassigned) [Cpd 171A] | ++++ ((++++) denotes >20 (10^-6 cm/sec)) | + ((+) denotes an apparent permeability <7 (10^-6 cm/sec)) |  |  |  |  | 
6 | CC1c2nnc(C3CC4(C3)CN(c3ccc(F)cn3)C4)n2-c2ccc(Cl)cc2CN1C(=O)C1(F)CC1 (single isomer, unassigned) [Cpd 174A] | ++++ ((++++) denotes >20 (10^-6 cm/sec)) | ++++ ((++++) denotes >20 (10^-6 cm/sec)) |  |  |  |  | 
7 | CC1c2nnc(C3CC4(C3)CN(c3ccc(F)cn3)C4)n2-c2ccc(Cl)cc2CN1C(=O)C(C)(C)F (single isomer, unassigned) [Cpd 178A] | ++++ ((++++) denotes >20 (10^-6 cm/sec)) | ++++ ((++++) denotes >20 (10^-6 cm/sec)) |  |  |  |  | 
8 | CC1c2nnc(C3CC4(C3)CN(c3ccccn3)C4)n2-c2ccc(Cl)cc2CN1C(=O)C1(F)CC1 (single isomer, unassigned) [Cpd 181A] | ++++ ((++++) denotes >20 (10^-6 cm/sec)) | ++++ ((++++) denotes >20 (10^-6 cm/sec)) |  |  |  |  | 
9 | CC1c2nnc(C3CC4(C3)CN(c3ccc(F)cn3)C4)n2-c2ccc(Cl)cc2CN1C(=O)OC1CC1 (single isomer, unassigned) [Cpd 191A] | ++++ ((++++) denotes >20 (10^-6 cm/sec)) | ++++ ((++++) denotes >20 (10^-6 cm/sec)) |  |  |  |  | 
10 | CC1c2nnc(C3CC4(C3)CN(c3ncc(F)cn3)C4)n2-c2ccc(Cl)cc2CN1C(=O)OC1CC1 (single isomer, unassigned) [Cpd 192A] | ++++ ((++++) denotes >20 (10^-6 cm/sec)) | ++++ ((++++) denotes >20 (10^-6 cm/sec)) |  |  |  |  | 
11 | CC(C)OC(=O)N1Cc2cc(Cl)ccc2-n2c(C3CC4(C3)CN(c3ncc(F)cn3)C4)nnc2C1C (single isomer, unassigned) [Cpd 201A] | ++++ ((++++) denotes >20 (10^-6 cm/sec)) | ++++ ((++++) denotes >20 (10^-6 cm/sec)) |  |  |  |  | 
12 | CC1c2nnc(C3CC4(C3)CN(c3ncccn3)C4)n2-c2ccc(Cl)cc2CN1C(=O)OC(CF)CF (single isomer, unassigned) [Cpd 202A] | ++++ ((++++) denotes >20 (10^-6 cm/sec)) | + ((+) denotes an apparent permeability <7 (10^-6 cm/sec)) |  |  |  |  | 
13 | CN1Cc2cc(Cl)ccc2-n2c(nnc2C2CC3(C2)CN(c2ccc(F)cn2)C3)C1 [compound 1, 8-chloro-1-(2-(5-fluoropyridin-2-yl)-2-azaspiro[3.3]heptan-6-yl)-5-methyl-5,6-dihydro-4H-benzo[f][1,2,4]triazolo[4,3-a][1,4]diazepine] |  |  | ++ | > 20 ×10⁻⁶ cm/s | + | + | 7 to 10 ×10⁻⁶ cm/s
14 | CN1Cc2cc(Cl)ccc2-n2c(nnc2C2CC3(C2)CN(c2cccc(F)n2)C3)C1 [compound 8] |  |  | ++++ | > 20 ×10⁻⁶ cm/s | +++ | +++ | > 20 ×10⁻⁶ cm/s
15 | Clc1ccc2c(c1)CN(C1COC1)Cc1nnc(C3CC4(C3)CN(c3ccccn3)C4)n1-2 [compound 57, 8-chloro-5-(oxetan-3-yl)-1-(2-(pyridin-2-yl)-2-azaspiro[3.3]heptan-6-yl)-5,6-dihydro-4H-benzo[f][1,2,4]triazolo[4,3-a][1,4]diazepine] |  |  | +++ | > 20 ×10⁻⁶ cm/s | + | + | < 7 ×10⁻⁶ cm/s
16 | CCC(=O)N1Cc2cc(Cl)ccc2-n2c(nnc2C2CC3(C2)CN(c2ccccn2)C3)C1 [compound 67] |  |  | +++ | > 20 ×10⁻⁶ cm/s | + | + | < 7 ×10⁻⁶ cm/s
17 | CC(C)C(=O)N1Cc2cc(Cl)ccc2-n2c(nnc2C2CC3(C2)CN(c2ccccn2)C3)C1 [compound 71] |  |  | ++++ | > 20 ×10⁻⁶ cm/s | + | + | < 7 ×10⁻⁶ cm/s
18 | O=C(N1Cc2cc(Cl)ccc2-n2c(nnc2C2CC3(C2)CN(c2cnccn2)C3)C1)C1(F)CC1 [compound 81] |  |  | +++ | > 20 ×10⁻⁶ cm/s | + | + | 7 to 10 ×10⁻⁶ cm/s
19 | O=C(C1CC1)N1CC2(CC(c3nnc4n3-c3ccc(Cl)cc3CN(C(=O)C3(F)CC3)C4)C2)C1 [compound 136] |  |  | + | 10 to 20 ×10⁻⁶ cm/s | + | + | < 7 ×10⁻⁶ cm/s
20 | COC(=O)N1Cc2cc(Cl)ccc2-n2c(C3CC4(C3)CN(c3ccc(F)cn3)C4)nnc2C1C (centres unmarked) [compound 142, methyl 8-chloro-1-(2-(5-fluoropyridin-2-yl)-2-azaspiro[3.3]heptan-6-yl)-4-methyl-4H-benzo[f][1,2,4]triazolo[4,3-a][1,4]diazepine-5(6H)-carboxylate] |  |  | ++++ | > 20 ×10⁻⁶ cm/s | + | ++ | > 20 ×10⁻⁶ cm/s
21 | CC(C)OC(=O)N1Cc2cc(Cl)ccc2-n2c(nnc2C2CC3(C2)CN(C(=O)C2CC2)C3)C1 [compound 153] |  |  | ++ | > 20 ×10⁻⁶ cm/s | + | + | < 7 ×10⁻⁶ cm/s
22 | COC(=O)N1Cc2cc(Cl)ccc2-n2c(C3CC4(C3)CN(c3ncccn3)C4)nnc2C1C (centres unmarked) [compound 166] |  |  | +++ | > 20 ×10⁻⁶ cm/s | + | + | < 7 ×10⁻⁶ cm/s
23 | CC(C)OC(=O)N1Cc2cc(Cl)ccc2-n2c(C3CC4(C3)CN(c3ncccn3)C4)nnc2C1C (centres unmarked) [compound 167] |  |  | +++ | > 20 ×10⁻⁶ cm/s | +++ | +++ | > 20 ×10⁻⁶ cm/s
24 | CCOC(=O)N1Cc2cc(Cl)ccc2-n2c(C3CC4(C3)CN(c3ncccn3)C4)nnc2C1C (centres unmarked) [compound 168] |  |  | +++ | > 20 ×10⁻⁶ cm/s | + | + | 7 to 10 ×10⁻⁶ cm/s
25 | COC(=O)N1Cc2cc(Cl)ccc2-n2c(C3CC4(C3)CN(c3ncc(F)cn3)C4)nnc2C1C (centres unmarked) [compound 170] |  |  | ++++ | > 20 ×10⁻⁶ cm/s | + | + | 10 to 20 ×10⁻⁶ cm/s
26 | CC1c2nnc(C3CC4(C3)CN(c3ncccn3)C4)n2-c2ccc(Cl)cc2CN1C(=O)OC1CC1 (centres unmarked) [compound 171] |  |  | ++++ | > 20 ×10⁻⁶ cm/s | + | + | 10 to 20 ×10⁻⁶ cm/s
27 | CCOC(=O)N1Cc2cc(Cl)ccc2-n2c(C3CC4(C3)CN(c3ncc(F)cn3)C4)nnc2C1C (centres unmarked) [compound 172] |  |  | ++++ | > 20 ×10⁻⁶ cm/s | ++ | ++ | > 20 ×10⁻⁶ cm/s
28 | CC1c2nnc(C3CC4(C3)CN(c3cnccn3)C4)n2-c2ccc(Cl)cc2CN1C(=O)C1(F)CC1 (centres unmarked) [compound 177] |  |  | +++ | > 20 ×10⁻⁶ cm/s | + | + | < 7 ×10⁻⁶ cm/s
